Laboratory results published in article PMC13576449, “Small-Molecule Activators of PRMT1: Discovery, SAR Analyses, and Proapoptotic Effects in Pancreatic Cancer Cells” (Journal of Medicinal Chemistry, 2026).

Legend:
Assay type in all cases: biochemical
[1] = molecular target: T1, FLAG-tagged PRMT4 (Mus musculus, UniProt Q9WVG6); assay: Fluorescence-based in vitro PRMT assay (F-PRMT assay), PRMT4; conditions: Table S2, 100 µM compound, n=3; for Experimental result (PRMT4): vs solvent control = 100%, racemates used
T1 construct: Full-length FLAG-tagged PRMT protein; made in house; host or cells: Sf9 insect cells (baculovirus)
T1 sequence (Q9WVG6 1-608): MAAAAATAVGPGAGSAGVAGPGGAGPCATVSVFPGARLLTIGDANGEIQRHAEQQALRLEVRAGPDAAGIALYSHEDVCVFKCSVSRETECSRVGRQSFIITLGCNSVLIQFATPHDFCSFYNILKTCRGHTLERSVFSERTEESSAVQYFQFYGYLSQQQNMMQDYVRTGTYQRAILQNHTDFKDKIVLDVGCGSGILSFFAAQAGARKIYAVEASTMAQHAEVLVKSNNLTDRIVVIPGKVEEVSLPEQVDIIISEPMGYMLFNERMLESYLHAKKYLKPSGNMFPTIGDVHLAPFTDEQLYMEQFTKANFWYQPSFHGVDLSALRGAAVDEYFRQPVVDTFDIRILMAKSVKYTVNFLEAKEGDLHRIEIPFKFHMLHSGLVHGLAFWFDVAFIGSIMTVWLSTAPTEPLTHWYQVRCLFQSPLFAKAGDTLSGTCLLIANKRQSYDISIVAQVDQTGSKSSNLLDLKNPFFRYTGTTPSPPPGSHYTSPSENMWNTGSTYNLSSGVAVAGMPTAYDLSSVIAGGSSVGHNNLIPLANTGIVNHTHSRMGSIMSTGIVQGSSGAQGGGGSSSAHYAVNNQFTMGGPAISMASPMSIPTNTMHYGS
Source text: (§1) To evaluate the effects of the selected candidate molecules on the catalytic activity of type I enzymes, we employed a quantitative fluorescence-based in vitro PRMT activity (F-PRMT) assay using recombinant FLAG-tagged PRMT proteins expressed and affinity-purified from baculovirus-infected Sf9 cells (SI Figure S1, SI Figure S2A).
(§2) Human cell lines (PaTu8988T, PANC-1) were obtained from ATCC (American Type Culture Collection) and cultured in DMEM supplemented with 10% fetal calf serum (FCS, Gibco/BRL), 1% penicillin/streptomycin at 37 °C and 5% CO2. […] For PRMT1 inhibition, cells were treated with type I PRMT inhibitor MS023 hydrochloride (Biomol). For induction of genotoxic stress, cells were treated with gemcitabine (LC Laboratories). […] The following plasmids were used: pFASTBAC-FLAG-rat PRMT1, pFASTBAC-FLAG-mouse PRMT4, and pGEX-GAR. The complete ORFs of human PRMT3 and PRMT6 were inserted into the pFASTBAC HT-3xFLAG B vector via BamHI/HindIII and BamHI/XhoI sites, respectively.
(§3) For PRMT protein expression in insect cells, recombinant baculovirus (bacmid) was generated using the Bac-to-Bac baculovirus system (Invitrogen). Sf9 cells were transfected with bacmid DNA using X-tremeGENE HP DNA transfection reagent (Sigma-Aldrich) according to the manufacturer's instructions. After 3–5 days, supernatants were collected, filtered, and used to infect Sf9 cells to amplify the virus. After 2 rounds of virus amplification and estimation of the final P3 virus titer, the P3 virus (2–5 μL/10^6 cells) was applied for large-scale infection of 200 × 10^6 Sf9 cells in suspension culture at a density of 1 × 10^6 cells/mL. Cells were harvested 5–6 days post-infection by centrifugation at 500 g for 5 min at room temperature. Protein purification from baculovirus-infected Sf9 cells was performed as previously described. , Cells were lysed in BC buffer (20 mM HEPES pH 7.9, 250 mM NaCl, 10% (v/v) glycerin, 0.4 mM EDTA, 1 mM DTT) containing a protease inhibitor cocktail (Roche) by 3 freeze-thaw cycles. After centrifugation at 11,000 rpm (Sorval SS34 rotor) and 4 °C for 1 h, the supernatant (whole cell protein extract) was incubated with anti-FLAG M2 Affinity Gel (Cytiva) at 4 °C and under agitation for 4 h. Subsequently, beads were washed in BC buffer containing various NaCl concentrations (once in BC with 1 M NaCl, twice in BC with 500 mM NaCl, twice in BC with 250 mM NaCl and twice in BC with 100 mM NaCl). FLAG-tagged proteins were either maintained bead-bound as a 50% (v/v) slurry in BC buffer with 100 mM NaCl and stored at −80 °C or were eluted in the appropriate elution buffer (depending on the subsequent assay) containing 0.25 mg/mL 3xFLAG peptides (Sigma-Aldrich) at 4 °C for 30–45 min. To remove the FLAG-peptides from the eluate, dialysis was performed in elution buffer containing 10% (v/v) glycerol at 4 °C for 4–6 h using Slide-A-Lyzer Dialysis Devices (Thermo Fisher Scientific) according to the manufacturer’s recommendations.
(§4) In the first step, the fluorogenic substrate Nα-Benzoyl-L-arginine-7-amido-4-methylcoumarin (Bz-Arg-AMC, Sigma-Aldrich) undergoes methylation by PRMTs upon the addition of the cofactor SAM. In the second reaction step, trypsin cleaves the nonmethylated substrate, leading to the generation of the 7-amino-4-methylcoumarin product, which can be quantified by subsequent fluorescence measurement (excitation: 355 nm, emission: 460 nm). The first reaction was conducted with bead-bound PRMTs at a total volume of 100 μL. Each condition was performed as a technical triplicate to determine the mean and the standard deviation. […] For the negative controls, SAM was substituted with assay buffer. The incubation was continued at 37 °C and under agitation (1,000 rpm) for a duration of 2 h.

[2] = molecular target: T2, FLAG-tagged PRMT6 (Homo sapiens, UniProt Q96LA8); assay: Fluorescence-based in vitro PRMT assay (F-PRMT assay), PRMT6; conditions: Table S2; 100 µM compound, vs solvent control = 100%, n=3; racemates used
T2 construct: The complete ORFs of human PRMT3 and PRMT6 were inserted; made in house; host or cells: Sf9 insect cells (baculovirus)
Source text: as §1, §2, §3, §4

[3] = molecular target: T3, FLAG-tagged PRMT1 (Rattus norvegicus, UniProt Q63009); assay: Fluorescence-based in vitro PRMT assay (F-PRMT assay), PRMT1; conditions: 100 μM compound; for activation at 100 µM: increase over solvent-treated activity, read-out: enhancement (increase) of PRMT1 enzymatic activity
T3 construct: Full-length FLAG-tagged PRMT protein; made in house; host or cells: Sf9 insect cells (baculovirus)
T3 sequence (Q63009 whole entry): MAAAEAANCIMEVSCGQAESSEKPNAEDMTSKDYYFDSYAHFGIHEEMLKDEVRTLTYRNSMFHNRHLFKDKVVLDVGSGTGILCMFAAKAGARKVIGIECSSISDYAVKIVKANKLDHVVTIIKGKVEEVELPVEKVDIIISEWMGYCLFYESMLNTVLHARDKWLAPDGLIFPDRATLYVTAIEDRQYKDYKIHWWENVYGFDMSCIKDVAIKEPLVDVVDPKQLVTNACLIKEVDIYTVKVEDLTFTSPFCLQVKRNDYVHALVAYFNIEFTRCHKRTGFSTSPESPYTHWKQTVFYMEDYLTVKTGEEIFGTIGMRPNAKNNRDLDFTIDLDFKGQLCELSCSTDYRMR

T2 sequence (Q96LA8 whole entry): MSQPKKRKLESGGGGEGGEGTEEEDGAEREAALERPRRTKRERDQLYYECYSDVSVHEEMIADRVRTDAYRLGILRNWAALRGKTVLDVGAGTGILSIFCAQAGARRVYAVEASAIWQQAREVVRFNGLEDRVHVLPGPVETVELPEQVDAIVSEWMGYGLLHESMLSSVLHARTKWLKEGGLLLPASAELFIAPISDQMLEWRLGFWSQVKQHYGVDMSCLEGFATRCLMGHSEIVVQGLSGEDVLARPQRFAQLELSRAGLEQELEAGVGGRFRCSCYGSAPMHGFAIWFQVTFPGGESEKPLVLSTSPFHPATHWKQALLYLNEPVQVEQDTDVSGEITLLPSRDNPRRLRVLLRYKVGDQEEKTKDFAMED

Structure (SMILES)	effect on PRMT1 activity (in words) [3]	further results
NCCNC[C@@H](O)COc1ccc(Cl)c(Cl)c1 (racemic) [Compound K001FT003]		Efficacy ±∆% (PRMT4) ([1]; mean % difference vs solvent control (100%)): -50%
Cc1nc([C@@H](O)Cc2ccccc2)n(CCc2cnc[nH]2)n1 (racemic) [Compound K001FT007]		Experimental result (PRMT4) [1]: n.e. (did not significantly affect the catalytic activity of the intended PRMT (less than ±6% change or not significant p-value), are marked with n.e. (no effect))
CC[C@H](NC(=O)c1cccc(Cn2cccn2)c1)c1nc(C)c[nH]1 (racemic) [Compound K001FT009]		Experimental result (PRMT4) [1]: n.e. (did not significantly affect the catalytic activity of the intended PRMT (less than ±6% change or not significant p-value), are marked with n.e. (no effect))
OCCNC[C@@H](O)COc1ccccc1 (racemic) [Compound K001JS001]		Experimental result (PRMT4) [1]: n.e. (did not significantly affect the catalytic activity of the intended PRMT (less than ±6% change or not significant p-value), are marked with n.e. (no effect))
O[C@H](CNCc1ccco1)COc1ccc2ccccc2c1 (racemic) [Compound K001JS002]		Experimental result (PRMT4) [1]: n.e. (did not significantly affect the catalytic activity of the intended PRMT (less than ±6% change or not significant p-value), are marked with n.e. (no effect))
CNC(=O)COc1ccc(NC(=O)[C@@H]2NC[C@@H]3C[C@@H]32)cc1 (racemic) [Compound K400JK006]		Experimental result (PRMT4) [1]: n.e. (did not significantly affect the catalytic activity of the intended PRMT (less than ±6% change or not significant p-value), are marked with n.e. (no effect))
C#CCNCC(=O)Nc1ccc([C@@H]2C[C@H]2N)cc1 (racemic) [Compound K400JK009]		Experimental result (PRMT4) [1]: n.e. (did not significantly affect the catalytic activity of the intended PRMT (less than ±6% change or not significant p-value), are marked with n.e. (no effect))
CCN(CCCC(=O)Nc1cccc(C)c1)C1CNC1 [Compound K600JK005]		Experimental result (PRMT6) [2]: n.e. (did not significantly affect the catalytic activity of the intended PRMT (less than ±6% change or not significant p-value), are marked with n.e. (no effect))
CCN(CC(=O)NCCc1cccc(Cl)c1)C1CNC1 [Compound K600JK006]		Experimental result (PRMT6) [2]: n.e. (did not significantly affect the catalytic activity of the intended PRMT (less than ±6% change or not significant p-value), are marked with n.e. (no effect))
CC(C)N(CCCOCc1ccccc1)CC(=N)NO [Compound K600JK007]		Experimental result (PRMT6) [2]: n.e. (did not significantly affect the catalytic activity of the intended PRMT (less than ±6% change or not significant p-value), are marked with n.e. (no effect))
CC(C)(C)c1cccc(OCCNC2CC(CN)C2)c1 (stereo not shown) [Compound K600JK008]		Experimental result (PRMT6) [2]: n.e. (did not significantly affect the catalytic activity of the intended PRMT (less than ±6% change or not significant p-value), are marked with n.e. (no effect))
CN(C)c1ccccc1N/C=C1\C(=O)NC(=O)c2ccccc21 [ICTR-015]	no effect	
Nc1ccccc1N/C=C1\C(=O)NC(=O)c2ccccc21 [ICTR-019]	no effect	
O=C1NC(=O)c2ccccc2C1=CNc1ccccc1Cn1cccc1 [ICTR-036]	no significant or minimal inhibitory activity	
O=C1NC(=O)c2ccccc2C1=CNc1ccccc1Cn1cncn1 [ICTR-042]	no significant or minimal inhibitory activity	
CN(C)c1ccccc1CN/C=C1\C(=O)NC(=O)c2ccccc21 [ICTR-052]	no effect or a modest activating effect	
CCN(CC)c1ccccc1N/C=C1\C(=O)NC(=O)c2ccccc21 [ICTR-060]	no effect	
CN(C)Cc1ccccc1CN/C=C1\C(=O)NC(=O)c2ccccc21 [ICTR-063]	reduced activating effect	
CC(C)Cc1ccc(N/C=C2\C(=O)NC(=O)c3ccccc32)cc1 [ICTR-076]	no effect	
CCN(CC)Cc1ccccc1-c1ccc2[nH]c(=O)c3ccccc3c2c1 [ICTR-094]	significantly lower activation of PRMT1 compared to TR-07	
CCN(CC)Cc1cccc(-c2ccc3[nH]c(=O)c4ccccc4c3c2)c1 [ICTR-096]	significantly increased PRMT1 activity	activation at 100 µM [3]: ≥ 60%
C[N+](C)(C)Cc1cccc(CN/C=C2\C(=O)NC(=O)c3ccccc32)c1.[I-] [ICTR-108]	no effect or a modest activating effect	
CCN(CC)Cc1ccccc1CN/C=C1\C(=O)NC(=O)c2ccccc21 [ICTR-119]	no significant effect	
CN(C)CCCN/C=C1\C(=O)NC(=O)c2ccccc21 [TR-018, (Z)-4-({[3-(Dimethylamino)propyl]amino}methylene)isoquinoline-1,3(2H,4H)-dione]	activated PRMT1 in a significant manner, albeit to a considerably lesser extent than TR-07	
CN(C)Cc1ccc(N/C=C2\C(=O)NC(=O)c3ccccc32)cc1 [TR-021]		activation at 100 µM [3]: ≥ 60%
CN(C)Cc1ccccc1N/C=C1\C(=O)NC(=O)c2ccccc21 [TR-022]	equal	
O=C1NC(=O)c2ccccc2/C1=C/Nc1ccccn1 [TR-030, (Z)-4-[(Pyridin-2-ylamino)methylene]isoquinoline-1,3(2H,4H)-dione]	no significant effect	
O=C1NC(=O)c2ccccc2C1=CNc1cccnc1 [TR-031]	no significant effect	
O=C1NC(=O)c2ccccc2C1=CNCc1cccnc1 [TR-032]	activated PRMT1 in a significant manner, albeit to a considerably lesser extent than TR-07	
O=C1NC(=O)c2ccccc2C1=CNc1cccc(CN2CCOCC2)c1 [TR-038]	strong inhibitory effect	
